Entries after “also recorded” stand apart in the source; their conditions may differ.
What was measured:
[1] = system: voltage-dependent calcium channels; test: Whole-cell recording of currents through voltage-activated calcium channels in a dissociated dorsal root ganglion neuron; assay type: cell-based, rat
Description: The traces show currents through voltage-activated calcium channels in a dissociated rat dorsal root ganglion neuron, recorded in whole-cell mode. Current was carried by 2 mM Ba^2+ on a background of 155 mM N-methyl-D-glucamine (to eliminate Na current), with an internal CsCl-based solution. Calcium channels were opened by a voltage step from −80 mV to −20 mV. When channels are opened, inward-going current is carried by Ba^2+ ions flowing into the cell.

[2] = system: rat hindpaw; test: Edema elicited by injection of complete Freund's adjuvant (CFA) in the rat hindpaw, total hindpaw volume by plethysmography; assay type: in vivo; conditions: intravenous QX-314 0.4 mg/kg
Description: FIG. 1 is a graph showing the effect of intravenous QX-314 (0.4 mg/kg) on the edema elicited by injection of complete Freund's adjuvant (CFA) in the rat hindpaw determined by measuring the total volume of the hindpaw by plethysmography. The degree of swelling produced by injection of CFA is reduced by administration of QX-314 reflecting reduction in neurogenic edema resulting from the blockade of nociceptors by QX314.

COc1ccc(CC[N+](C)(C)CCCC(C#N)(c2ccc(OC)c(OC)c2)C(C)C)cc1OC (centres unmarked) [N-methyl-verapamil]
effect on calcium channel currents, N-methyl-verapamil alone ([1]; 300 μM N-methyl-verapamil alone, before and 3 minutes after exposure, step from −80 mV to −20 mV, 2 mM Ba2+): weak, transient effects | inhibition of voltage-dependent calcium channel current, N-methyl-verapamil applied in the presence of capsaicin ([1]; 300 μM N-methyl-verapamil in the presence of 1 μM capsaicin to open TRPV1 channels, 3 minutes after exposure and after washout): long-lasting inhibition; also recorded: inhibition of calcium channel currents that persists after washout; also recorded: inhibition of voltage-dependent calcium channel current

CC[N+](CC)(CC)CC(=O)Nc1c(C)cccc1C [QX-314]
degree of swelling produced by injection of CFA (total volume of the hindpaw) ([2]; CFA-injected hindpaw): reduced | effect on hindpaw volume of QX-314 by itself ([2]; by itself (no CFA), compared with saline): no effect different from administration of saline

COc1cc(CNC(=O)CCCC/C=C/C(C)C)ccc1O [capsaicin, reference compound]
effect on calcium channel currents, capsaicin alone ([1]; 1 μM capsaicin alone, before and 3 minutes after exposure, step from −80 mV to −20 mV, 2 mM Ba2+): weak, transient effects
